Laboratory results as given in PubChem BioAssay (NCI).
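A five-concentration, 48-hour dose response in 96-well plates underlies each endpoint, interpolated linearly between surrounding concentrations. TGI is the concentration that stops growth completely.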

Tests used:
Experiment in all cases: NCI anticancer screen, dose series, 48 h
[1] = system: COLO 205 colon
[2] = system: OVCAR-4 ovarian
[3] = system: SK-MEL-5 melanoma
[4] = system: HS 578T breast
[5] = system: SNB-75 CNS
[6] = system: UO-31 renal
[7] = system: K-562 leukemia
[8] = system: HL-60(TB) leukemia
[9] = system: UACC-257 melanoma
[10] = system: TK-10 renal
[11] = system: SF-295 CNS
[12] = system: SR leukemia
[13] = system: NCI/ADR-RES ovarian
[14] = system: M14 melanoma
[15] = system: RXF 393 renal
[16] = system: SK-MEL-28 melanoma
[17] = system: OVCAR-5 ovarian
[18] = system: HOP-92 NSCLC
[19] = system: MALME-3M melanoma
[20] = system: OVCAR-8 ovarian

Structure (SMILES) | TGI [1] | TGI [2] | TGI [3] | TGI [4] | TGI [5] | TGI [6] | TGI [7] | TGI [8] | TGI [9] | TGI [10] | TGI [11] | TGI [12] | TGI [13] | TGI [14] | TGI [15] | TGI [16] | TGI [17] | TGI [18] | TGI [19] | TGI [20]
CC(C)(C)CC(C)(C)N=C(N)NO | > 100 µM | > 100 µM | > 100 µM | > 100 µM | > 100 µM | > 80.2 µM | > 100 µM | > 100 µM | > 100 µM | > 100 µM | > 100 µM | > 100 µM | > 100 µM | > 100 µM | > 100 µM | > 100 µM | > 100 µM | > 100 µM | > 100 µM | > 100 µM
COC(=O)[C@@H]1C2OC(C)(C)OC2CN1C(=O)OCc1ccccc1 (stereo not given in full) | > 100 µM | > 100 µM | > 100 µM | > 100 µM | > 100 µM | > 100 µM | > 100 µM | > 100 µM | > 100 µM | > 100 µM | > 100 µM | > 100 µM | > 100 µM | > 100 µM | > 100 µM | > 100 µM | > 100 µM | > 100 µM | > 100 µM | > 100 µM
CO[C@@H]1C=C[C@@]23c4cc5c(cc4C(O)N(CC2O)C3C1)OCO5 (stereo not given in full) | 14.2 µM | 19.4 µM | 6.01 µM | > 100 µM | 6.92 µM | 36.8 µM | > 100 µM | 5.64 µM | 5.9 µM | 23 µM | 64.1 µM | > 100 µM | 75.1 µM | 12.6 µM | 50.3 µM | > 100 µM | 79.3 µM | 13.6 µM | > 100 µM | > 100 µM
COc1ccc([C@H]2C=C(c3cc(F)c(Cl)cc3Cl)NC(=S)N2)cc1 | 48.6 µM | > 100 µM | 27.2 µM | > 100 µM | 66.5 µM | > 100 µM | > 100 µM | 35.7 µM | 76.2 µM | > 100 µM | > 100 µM | > 100 µM | > 100 µM | > 100 µM | 79.9 µM | > 100 µM | > 100 µM | > 100 µM | > 100 µM | > 100 µM
N#Cc1c(N)c2c(c(-c3ccccc3)c1-c1ccccc1)C(=O)N(NC(=O)c1ccccc1)C2=O | > 100 µM | > 100 µM | > 100 µM | > 100 µM | > 100 µM | > 100 µM | > 100 µM | > 100 µM | > 100 µM | > 100 µM | > 100 µM | > 100 µM | > 100 µM | > 100 µM | > 100 µM | > 100 µM | > 100 µM | > 100 µM | > 100 µM | > 100 µM
CCN(CC)CCOC(=O)CCN1CC2CCC(CC2)C1 | > 100 µM | > 100 µM | > 100 µM | > 100 µM | > 100 µM | > 100 µM | > 100 µM | > 100 µM | > 100 µM | > 100 µM | > 100 µM | > 100 µM | > 100 µM | > 100 µM | > 100 µM | > 100 µM | > 100 µM | > 100 µM | > 100 µM | > 100 µM
Cn1c(=O)c2c(nc(N)n2C2OC(CO)C(O)C2O)n(C)c1=O (stereo not given) | > 100 µM | > 100 µM | > 100 µM | > 100 µM | > 100 µM | > 100 µM | > 100 µM | > 100 µM | > 100 µM | > 100 µM | > 100 µM | > 100 µM | > 100 µM | > 100 µM | > 100 µM | > 100 µM | > 100 µM | > 100 µM | > 100 µM | > 100 µM
Cc1cc(S(=O)(=O)NC2=NC(c3ccccc3)c3ccccc3N2)c(S)cc1Cl (stereo not given) | > 100 µM | > 100 µM | > 100 µM | > 100 µM | > 100 µM | 46.5 µM | > 100 µM | > 100 µM | > 100 µM | > 100 µM | > 100 µM | 58.3 µM | > 100 µM | > 100 µM | > 100 µM | > 100 µM | > 100 µM | > 100 µM | > 100 µM | > 100 µM
CC(C)c1c(O[Si](C(C)C)(C(C)C)C(C)C)c2c3c(ccc4c3c1OC4(C)C)C(C)CC2 (stereo not given) | > 100 µM | > 100 µM | > 100 µM | > 100 µM | > 100 µM | > 100 µM | > 100 µM | > 100 µM | > 100 µM | > 100 µM | > 100 µM | > 100 µM | > 100 µM | > 100 µM | > 100 µM | > 100 µM | > 100 µM | > 100 µM | > 100 µM | > 100 µM
COc1ccccc1N1C(=O)CS(=O)(=O)C1c1cccc(Oc2ccccc2)c1 (stereo not given) | 34.4 µM | 38.6 µM | 28.9 µM | 48.2 µM | 48.2 µM | 35.1 µM | 19.1 µM | 79.9 µM | 25.6 µM | 33.8 µM | 38.2 µM | 28.2 µM | 40 µM | 33.3 µM | 38.8 µM | 36.7 µM | 59 µM | 24.7 µM | 30 µM | 34.3 µM
Nc1nc(Cl)cc(NCC2(CO)CCC(O)C2)n1 (stereo not given) | > 100 µM | > 100 µM | > 100 µM | > 100 µM | > 100 µM | > 100 µM | > 100 µM | > 100 µM | > 100 µM | > 100 µM | > 100 µM | > 100 µM | > 100 µM | > 100 µM | > 100 µM | > 100 µM | > 100 µM | > 100 µM | > 100 µM | > 100 µM
